Measured values from patent US4870097A, “Pharmaceutical use of derivatives of tryptophan” (priority 1984, dated 1989).

Test system: guinea pig gall bladder contracted with CCK-8
Test: Anti-CCK activity on guinea pig gall bladders in vitro
Type: biochemical
Details: CCK-8 10 ng/ml, concentration antagonising 50% of contracting effect
How it was run: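 Longitudinal gall bladder strips in Krebs at 32° C, gassed with O2/CO2 95:5, were contracted with CCK-8 at 10 ng/ml and contractions recorded isometrically via force transducer. ED50 in mcg/ml is the compound concentration antagonising 50% of CCK contraction, derived by regression over at least three experiments.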

| SMILES | Anti CCK-8 activity, ED50 [µg/mL] |
| --- | --- |
| CCCCCCc1ccc(C(=O)N[C@@H](Cc2c[nH]c3ccccc23)C(=O)O)cc1 [Compound 26] | 152.1 |
| O=C(N[C@@H](Cc1c[nH]c2ccccc12)C(=O)O)OC(c1ccccc1)c1ccccc1 [Compound 33] | 76.3 |
